# Measurements reported in ChEMBL document CHEMBL5154755, “Discovery of Novel Indazoles as Potent and Selective PI3Kδ Inhibitors with High Efficacy for Treatment of Hepatocellular Carcinoma” (J Med Chem, 2022).
# Test system: Bel-7402
# Test: cells
# Details: Homo sapiens, Bel-7402, 72 h, read-out: INH
row,SMILES,inhibition at 10 µM [%]
1,C[C@H](Nc1nc(N)nc(N)c1C#N)c1nn(-c2cccc(S(C)(=O)=O)c2)c2cc(F)ccc12,14
2,C[C@H](Nc1nc(N)nc(N)c1C#N)c1nn(-c2ccncc2)c2cc(F)ccc12,43
3,C[C@H](Nc1nc(N)nc2[nH]cnc12)c1nn(-c2cccnc2)c2cc(F)ccc12,-5
4,C[C@H](Nc1ncnc2[nH]cnc12)c1nn(-c2ccccn2)c2cc(F)ccc12,7
5,C[C@H](Nc1ncccc1C#N)c1nn(-c2cccnc2)c2cc(F)ccc12,11
6,CC[C@H](Nc1nc(N)nc(N)c1C#N)c1nn(-c2cccnc2)c2cc(F)ccc12,29
7,C[C@H](Nc1ncnc2[nH]cnc12)c1nn(-c2cccnc2)c2cc(Cl)ccc12,17
8,C[C@H](Nc1nc(N)nc(N)c1C#N)c1nn(-c2cccnc2)c2cc(F)ccc12,15
9,C[C@H](Nc1ncnc2[nH]cnc12)c1nn(-c2cccc(S(C)(=O)=O)c2)c2cc(F)ccc12,-16
10,C[C@H](Nc1ncnc(N)c1C#N)c1nn(-c2cccnc2)c2cc(F)ccc12,-4
11,C[C@H](Nc1ncnc2[nH]cnc12)c1nn(-c2cccnc2)c2cc(F)ccc12,8
12,C[C@H](Nc1ncnc2[nH]cnc12)c1nn(-c2cccc(F)c2)c2cc(F)ccc12,-17
13,C[C@H](Nc1ncnc2[nH]cnc12)c1nn(-c2cc(F)cc(F)c2)c2cc(F)ccc12,-8
14,CC(Nc1ncnc2[nH]cnc12)c1nn(-c2cccnc2)c2ccccc12 (racemic),4
15,C[C@H](Nc1ncnc2[nH]cnc12)c1nn(-c2ccncc2)c2cc(F)ccc12,16

# Test system: Hep 3B2
# Test: cells
# Details: Homo sapiens, Hep3B, 72 h, read-out: INH
row,SMILES,inhibition at 10 µM [%]
1,C[C@H](Nc1nc(N)nc(N)c1C#N)c1nn(-c2cccc(S(C)(=O)=O)c2)c2cc(F)ccc12,36
2,C[C@H](Nc1nc(N)nc(N)c1C#N)c1nn(-c2ccncc2)c2cc(F)ccc12,50
3,C[C@H](Nc1nc(N)nc2[nH]cnc12)c1nn(-c2cccnc2)c2cc(F)ccc12,14
4,C[C@H](Nc1ncnc2[nH]cnc12)c1nn(-c2ccccn2)c2cc(F)ccc12,12
5,C[C@H](Nc1ncccc1C#N)c1nn(-c2cccnc2)c2cc(F)ccc12,10
6,CC[C@H](Nc1nc(N)nc(N)c1C#N)c1nn(-c2cccnc2)c2cc(F)ccc12,32
7,C[C@H](Nc1ncnc2[nH]cnc12)c1nn(-c2cccnc2)c2cc(Cl)ccc12,13
8,C[C@H](Nc1nc(N)nc(N)c1C#N)c1nn(-c2cccnc2)c2cc(F)ccc12,30
9,C[C@H](Nc1ncnc2[nH]cnc12)c1nn(-c2cccc(S(C)(=O)=O)c2)c2cc(F)ccc12,11
10,C[C@H](Nc1ncnc(N)c1C#N)c1nn(-c2cccnc2)c2cc(F)ccc12,30
11,C[C@H](Nc1ncnc2[nH]cnc12)c1nn(-c2cccnc2)c2cc(F)ccc12,20
12,C[C@H](Nc1ncnc2[nH]cnc12)c1nn(-c2cccc(F)c2)c2cc(F)ccc12,28
13,C[C@H](Nc1ncnc2[nH]cnc12)c1nn(-c2cc(F)cc(F)c2)c2cc(F)ccc12,14
14,CC(Nc1ncnc2[nH]cnc12)c1nn(-c2cccnc2)c2ccccc12 (racemic),9
15,C[C@H](Nc1ncnc2[nH]cnc12)c1nn(-c2ccncc2)c2cc(F)ccc12,5

# Test system: Hep 3B2
# Test: Antiproliferative activity against human Hep3B cells assessed as inhibition of cell growth incubated for 72 hrs by SRB assay
# Assay type: functional, cell-based
# Details: not given
row,SMILES,IC50 [µM]
1,C[C@H](Nc1nc(N)nc(N)c1C#N)c1nn(-c2cccc(S(C)(=O)=O)c2)c2cc(F)ccc12,19.7
2,C[C@H](Nc1nc(N)nc(N)c1C#N)c1nn(-c2ccncc2)c2cc(F)ccc12,11.6
3,C[C@H](Nc1nc(N)nc2[nH]cnc12)c1nn(-c2cccnc2)c2cc(F)ccc12,> 40
4,C[C@H](Nc1ncnc2[nH]cnc12)c1nn(-c2ccccn2)c2cc(F)ccc12,> 40
5,C[C@H](Nc1ncccc1C#N)c1nn(-c2cccnc2)c2cc(F)ccc12,> 40
6,CC[C@H](Nc1nc(N)nc(N)c1C#N)c1nn(-c2cccnc2)c2cc(F)ccc12,37.5
7,C[C@H](Nc1ncnc2[nH]cnc12)c1nn(-c2cccnc2)c2cc(Cl)ccc12,> 40
8,C[C@H](Nc1nc(N)nc(N)c1C#N)c1nn(-c2cccnc2)c2cc(F)ccc12,23.8
9,C[C@H](Nc1ncnc2[nH]cnc12)c1nn(-c2cccc(S(C)(=O)=O)c2)c2cc(F)ccc12,13
10,C[C@H](Nc1ncnc(N)c1C#N)c1nn(-c2cccnc2)c2cc(F)ccc12,19.2
11,C[C@H](Nc1ncnc2[nH]cnc12)c1nn(-c2cccnc2)c2cc(F)ccc12,34.5
12,C[C@H](Nc1ncnc2[nH]cnc12)c1nn(-c2cccc(F)c2)c2cc(F)ccc12,> 40
13,C[C@H](Nc1ncnc2[nH]cnc12)c1nn(-c2cc(F)cc(F)c2)c2cc(F)ccc12,> 40
14,CC(Nc1ncnc2[nH]cnc12)c1nn(-c2cccnc2)c2ccccc12 (racemic),40.3
15,C[C@H](Nc1ncnc2[nH]cnc12)c1nn(-c2ccncc2)c2cc(F)ccc12,21.4

# Test system: HepG2
# Test: cells
# Details: Homo sapiens, HepG2, 72 h
# Description: Antiproliferative activity against human HepG2 cells assessed as inhibition of cell growth incubated for 72 hrs by SRB assay
row,IC50 [µM],SMILES
1,19.1,C[C@H](Nc1nc(N)nc(N)c1C#N)c1nn(-c2cccc(S(C)(=O)=O)c2)c2cc(F)ccc12
2,7.48,C[C@H](Nc1nc(N)nc(N)c1C#N)c1nn(-c2ccncc2)c2cc(F)ccc12
3,> 40,C[C@H](Nc1nc(N)nc2[nH]cnc12)c1nn(-c2cccnc2)c2cc(F)ccc12
4,29.9,C[C@H](Nc1ncnc2[nH]cnc12)c1nn(-c2ccccn2)c2cc(F)ccc12
5,> 40,C[C@H](Nc1ncccc1C#N)c1nn(-c2cccnc2)c2cc(F)ccc12
6,> 40,CC[C@H](Nc1nc(N)nc(N)c1C#N)c1nn(-c2cccnc2)c2cc(F)ccc12
7,> 40,C[C@H](Nc1ncnc2[nH]cnc12)c1nn(-c2cccnc2)c2cc(Cl)ccc12
8,23.2,C[C@H](Nc1nc(N)nc(N)c1C#N)c1nn(-c2cccnc2)c2cc(F)ccc12
9,14.8,C[C@H](Nc1ncnc2[nH]cnc12)c1nn(-c2cccc(S(C)(=O)=O)c2)c2cc(F)ccc12
10,25.4,C[C@H](Nc1ncnc(N)c1C#N)c1nn(-c2cccnc2)c2cc(F)ccc12
11,37.5,C[C@H](Nc1ncnc2[nH]cnc12)c1nn(-c2cccnc2)c2cc(F)ccc12
12,32.3,C[C@H](Nc1ncnc2[nH]cnc12)c1nn(-c2cccc(F)c2)c2cc(F)ccc12
13,22.1,C[C@H](Nc1ncnc2[nH]cnc12)c1nn(-c2cc(F)cc(F)c2)c2cc(F)ccc12
14,26.2,CC(Nc1ncnc2[nH]cnc12)c1nn(-c2cccnc2)c2ccccc12 (racemic)
15,23.1,C[C@H](Nc1ncnc2[nH]cnc12)c1nn(-c2ccncc2)c2cc(F)ccc12

# Test system: HepG2
# Test: cells
# Details: Homo sapiens, HepG2, 72 h, read-out: INH
row,SMILES,inhibition at 10 µM [%]
1,C[C@H](Nc1nc(N)nc(N)c1C#N)c1nn(-c2cccc(S(C)(=O)=O)c2)c2cc(F)ccc12,24
2,C[C@H](Nc1nc(N)nc(N)c1C#N)c1nn(-c2ccncc2)c2cc(F)ccc12,84
3,C[C@H](Nc1nc(N)nc2[nH]cnc12)c1nn(-c2cccnc2)c2cc(F)ccc12,11
4,C[C@H](Nc1ncnc2[nH]cnc12)c1nn(-c2ccccn2)c2cc(F)ccc12,22
5,C[C@H](Nc1ncccc1C#N)c1nn(-c2cccnc2)c2cc(F)ccc12,24
6,CC[C@H](Nc1nc(N)nc(N)c1C#N)c1nn(-c2cccnc2)c2cc(F)ccc12,28
7,C[C@H](Nc1ncnc2[nH]cnc12)c1nn(-c2cccnc2)c2cc(Cl)ccc12,13
8,C[C@H](Nc1nc(N)nc(N)c1C#N)c1nn(-c2cccnc2)c2cc(F)ccc12,29
9,C[C@H](Nc1ncnc2[nH]cnc12)c1nn(-c2cccc(S(C)(=O)=O)c2)c2cc(F)ccc12,23
10,C[C@H](Nc1ncnc(N)c1C#N)c1nn(-c2cccnc2)c2cc(F)ccc12,56
11,C[C@H](Nc1ncnc2[nH]cnc12)c1nn(-c2cccnc2)c2cc(F)ccc12,23
12,C[C@H](Nc1ncnc2[nH]cnc12)c1nn(-c2cccc(F)c2)c2cc(F)ccc12,33
13,C[C@H](Nc1ncnc2[nH]cnc12)c1nn(-c2cc(F)cc(F)c2)c2cc(F)ccc12,30
14,CC(Nc1ncnc2[nH]cnc12)c1nn(-c2cccnc2)c2ccccc12 (racemic),13
15,C[C@H](Nc1ncnc2[nH]cnc12)c1nn(-c2ccncc2)c2cc(F)ccc12,47

# Target: T1, Phosphatidylinositol 4,5-bisphosphate 3-kinase catalytic subunit delta isoform (Homo sapiens, UniProt O00329)
# T1 sequence (O00329 whole entry): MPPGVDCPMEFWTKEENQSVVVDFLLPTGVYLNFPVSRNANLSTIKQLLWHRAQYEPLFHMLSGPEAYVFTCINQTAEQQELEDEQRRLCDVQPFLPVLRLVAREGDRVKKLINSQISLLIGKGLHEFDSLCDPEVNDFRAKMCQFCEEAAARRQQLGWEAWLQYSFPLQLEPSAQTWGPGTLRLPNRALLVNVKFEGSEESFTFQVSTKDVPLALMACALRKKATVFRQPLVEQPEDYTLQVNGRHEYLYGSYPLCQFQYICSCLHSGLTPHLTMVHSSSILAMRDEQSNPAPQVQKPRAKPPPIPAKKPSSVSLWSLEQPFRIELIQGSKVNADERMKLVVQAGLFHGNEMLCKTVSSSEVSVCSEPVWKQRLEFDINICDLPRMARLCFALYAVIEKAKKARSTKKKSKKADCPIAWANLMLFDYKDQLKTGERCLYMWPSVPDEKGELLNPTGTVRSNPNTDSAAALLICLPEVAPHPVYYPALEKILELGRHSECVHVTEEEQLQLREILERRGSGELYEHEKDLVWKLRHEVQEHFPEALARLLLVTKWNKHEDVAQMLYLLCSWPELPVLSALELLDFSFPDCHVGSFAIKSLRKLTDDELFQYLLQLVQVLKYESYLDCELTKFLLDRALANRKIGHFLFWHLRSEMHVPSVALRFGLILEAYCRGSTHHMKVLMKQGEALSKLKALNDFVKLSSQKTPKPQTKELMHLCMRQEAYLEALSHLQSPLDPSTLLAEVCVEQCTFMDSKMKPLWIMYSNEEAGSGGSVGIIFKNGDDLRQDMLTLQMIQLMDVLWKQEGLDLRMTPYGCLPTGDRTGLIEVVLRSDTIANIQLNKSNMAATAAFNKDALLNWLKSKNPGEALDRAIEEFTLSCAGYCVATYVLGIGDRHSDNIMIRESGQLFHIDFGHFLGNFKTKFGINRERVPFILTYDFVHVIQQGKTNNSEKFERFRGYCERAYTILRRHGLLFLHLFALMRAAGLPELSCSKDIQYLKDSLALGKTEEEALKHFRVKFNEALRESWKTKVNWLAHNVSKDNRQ
# Test: Inhibition of PI3Kdelta (unknown origin) using PIP2 as substrate incubated for 1 hr in presence of ATP by ADP-Glo assay
# Details: not given
row,IC50 [µM],SMILES
1,0.0026,C[C@H](Nc1nc(N)nc(N)c1C#N)c1nn(-c2cccc(S(C)(=O)=O)c2)c2cc(F)ccc12
2,0.0057,C[C@H](Nc1nc(N)nc(N)c1C#N)c1nn(-c2ccncc2)c2cc(F)ccc12
3,0.039,C[C@H](Nc1nc(N)nc2[nH]cnc12)c1nn(-c2cccnc2)c2cc(F)ccc12
4,2.28,C[C@H](Nc1ncnc2[nH]cnc12)c1nn(-c2ccccn2)c2cc(F)ccc12
5,> 10,C[C@H](Nc1ncccc1C#N)c1nn(-c2cccnc2)c2cc(F)ccc12
6,0.0021,CC[C@H](Nc1nc(N)nc(N)c1C#N)c1nn(-c2cccnc2)c2cc(F)ccc12
7,0.0077,C[C@H](Nc1ncnc2[nH]cnc12)c1nn(-c2cccnc2)c2cc(Cl)ccc12
8,0.0037,C[C@H](Nc1nc(N)nc(N)c1C#N)c1nn(-c2cccnc2)c2cc(F)ccc12
9,0.0123,C[C@H](Nc1ncnc2[nH]cnc12)c1nn(-c2cccc(S(C)(=O)=O)c2)c2cc(F)ccc12
10,0.021,C[C@H](Nc1ncnc(N)c1C#N)c1nn(-c2cccnc2)c2cc(F)ccc12
11,0.038,C[C@H](Nc1ncnc2[nH]cnc12)c1nn(-c2cccnc2)c2cc(F)ccc12
12,0.485,C[C@H](Nc1ncnc2[nH]cnc12)c1nn(-c2cccc(F)c2)c2cc(F)ccc12
13,0.423,C[C@H](Nc1ncnc2[nH]cnc12)c1nn(-c2cc(F)cc(F)c2)c2cc(F)ccc12
14,0.392,CC(Nc1ncnc2[nH]cnc12)c1nn(-c2cccnc2)c2ccccc12 (racemic)
15,0.052,C[C@H](Nc1ncnc2[nH]cnc12)c1nn(-c2ccncc2)c2cc(F)ccc12

# Test system: Bel-7402
# Test: Antiproliferative activity against human Bel-7402 cells assessed as inhibition of cell growth incubated for 72 hrs by SRB assay
# Assay type: functional, cell-based
# Details: Bel-7402, 72 h
row,IC50 [µM],SMILES
1,22.1,C[C@H](Nc1nc(N)nc(N)c1C#N)c1nn(-c2cccc(S(C)(=O)=O)c2)c2cc(F)ccc12
2,8.31,C[C@H](Nc1nc(N)nc(N)c1C#N)c1nn(-c2ccncc2)c2cc(F)ccc12
3,> 40,C[C@H](Nc1nc(N)nc2[nH]cnc12)c1nn(-c2cccnc2)c2cc(F)ccc12
4,> 40,C[C@H](Nc1ncnc2[nH]cnc12)c1nn(-c2ccccn2)c2cc(F)ccc12
5,> 40,C[C@H](Nc1ncccc1C#N)c1nn(-c2cccnc2)c2cc(F)ccc12
6,> 40,CC[C@H](Nc1nc(N)nc(N)c1C#N)c1nn(-c2cccnc2)c2cc(F)ccc12
7,> 40,C[C@H](Nc1ncnc2[nH]cnc12)c1nn(-c2cccnc2)c2cc(Cl)ccc12
8,29.8,C[C@H](Nc1nc(N)nc(N)c1C#N)c1nn(-c2cccnc2)c2cc(F)ccc12
9,20,C[C@H](Nc1ncnc2[nH]cnc12)c1nn(-c2cccc(S(C)(=O)=O)c2)c2cc(F)ccc12
10,37.4,C[C@H](Nc1ncnc(N)c1C#N)c1nn(-c2cccnc2)c2cc(F)ccc12
11,> 40,C[C@H](Nc1ncnc2[nH]cnc12)c1nn(-c2cccnc2)c2cc(F)ccc12
12,> 40,C[C@H](Nc1ncnc2[nH]cnc12)c1nn(-c2cccc(F)c2)c2cc(F)ccc12
13,> 40,C[C@H](Nc1ncnc2[nH]cnc12)c1nn(-c2cc(F)cc(F)c2)c2cc(F)ccc12
14,16.1,CC(Nc1ncnc2[nH]cnc12)c1nn(-c2cccnc2)c2ccccc12 (racemic)
15,> 40,C[C@H](Nc1ncnc2[nH]cnc12)c1nn(-c2ccncc2)c2cc(F)ccc12
